These are literature values, as cited in Sander's compilation of Henry's law constants (doi:10.1016/s0016-7037(99)00330-0).

The nature of this data set: Henry solubility constant Hcp at 298.15 K (mol/(m3 Pa)). The following applies: reference: Plyasunov and Shock (2000); cited value.
As to `CC(C)C#CC(C)(C)C` [2,2,5-trimethyl-3-hexyne], the “Henry solubility constant Hcp” value was 5.5e-05.

In the case of `CC(C)O` [2-propanol], the “Henry solubility constant Hcp” value was 1.2.

For `CC(C)(C)C` [dimethylpropane], the “Henry solubility constant Hcp” value was 6e-06.

Turning to `CC(C)C(C)C(C)C` [2,3,4-trimethylpentane], the “Henry solubility constant Hcp” value is 4.3e-06.

`CC1=CCC(=C(C)C)CC1` [1-methyl-4-(1-methylethylidene)-cyclohexene]: the “Henry solubility constant Hcp” value was 0.00079.

Regarding `CCCC` [butane], the “Henry solubility constant Hcp” value is 1.2e-05.

For the molecule `CCCCCCCCCC` [decane], the “Henry solubility constant Hcp” value is 1.1e-06.

As to `Cc1cccc(C)c1` [1,3-dimethylbenzene], the “Henry solubility constant Hcp” value was 0.0014.

In the case of `CCCCCO` [1-pentanol], the “Henry solubility constant Hcp” value is 0.89.

With `CC(C)Cc1ccccc1` [(2-methylpropyl)-benzene], the “Henry solubility constant Hcp” value was 0.00029.

In the case of `C=CC` [propene], the “Henry solubility constant Hcp” value was 5.6e-05.

Take `CCCCCCCCCCc1ccccc1` [decylbenzene]: the “Henry solubility constant Hcp” value is 8.6e-05.

As for `CCCC(O)CCC` [4-heptanol], the “Henry solubility constant Hcp” value was 0.34.

`C=CCCCCCCC` [1-nonene]: the “Henry solubility constant Hcp” value was 1.2e-05.

Turning to `CCCC(O)CC` (configuration not stated) [3-hexanol], the “Henry solubility constant Hcp” value was 0.42.

Take `CCCCCCC` [heptane]: the “Henry solubility constant Hcp” value was 4.9e-06.

As to `CCCCC(C)CC` (configuration not stated) [3-methylheptane], the “Henry solubility constant Hcp” value was 2.7e-06.

Regarding `CCCCCC1CCCC1` [pentylcyclopentane], the “Henry solubility constant Hcp” value is 5.3e-06.

For `OC1CCCCCC1` [cycloheptanol], the “Henry solubility constant Hcp” value was 4.6.

Take `CC(C)C(C)C` [2,3-dimethylbutane]: the “Henry solubility constant Hcp” value was 7.6e-06.

In the case of `CCC(C)(C)C` [2,2-dimethylbutane], the “Henry solubility constant Hcp” value is 5.6e-06.

Turning to `CCCCC(C)O` (configuration not stated) [2-hexanol], the “Henry solubility constant Hcp” value is 0.52.

Take `CCCC(C)(C)C` [2,2-dimethylpentane]: the “Henry solubility constant Hcp” value was 3.1e-06.

As for `CCCCCCCCCCCC` [dodecane], the “Henry solubility constant Hcp” value is 1.2e-06.

Regarding `OC1CCCC1` [cyclopentanol], the “Henry solubility constant Hcp” value was 4.2.

`CCC(O)CC` [3-pentanol]: the “Henry solubility constant Hcp” value was 0.55.

In the case of `CCCCCc1ccccc1` [pentylbenzene], the “Henry solubility constant Hcp” value is 0.00051.
